*1 amine or outer side, *2 acyl side, *3 side chain or, on linkers, in order; H or OH if unused. Where a SMILES comes first, the peptide text is derived from it. Bridges are numbered along the chain shown (N, C = ends). Roman numbers before positions name the chains, in order. [ ]: non-standard residue; d: D form. Actinocin(9to1) = Cc1c2oc3c(C)ccc(C(=O)[*:1])c3nc-2c(C(=O)[*:2])c(N)c1=O; NMeV = CN[C@H](C(=O)O)C(C)C; Sar = CNCC(=O)O
Columns and labels:
[1] = test system: KB: epidermal carcinoma of the oral cavity; assay: In vivo antitumor activity (hollow fiber assay), KB; conditions: for % Inhibition (cell line) KB: location s.c., i.p. doses (mg/kg): sootepenseone 4 × 10, Actinomycin D 4 × 0.1, Adriamycin 4 × 4, Bleomycin 4 × 8, Vinblastin 4 × 0.65
Description: (§1) The hollow-fiber test was carried out as described by Melinda G. Hollingshead et al. in Life Sciences, Vol. 57, No. 2, pp.131-141, 1995.

mice = assay: Toxicity (LD50, i.p., mice)
[2] = test system: KB: epidermal carcinoma of the oral cavity; assay: XTT proliferation/cytotoxicity test, KB; format: cell-based; conditions: all tested tumor cell lines (KB, L1210, SK-OV-3, LNCAP)
Description: The XTT-assay was carried out as described by D. A. Scudiero et al., Cancer Res. 48 (Sep. 1, 1988), pp. 4827-4833. The results of this procedure are expressed as that dose which inhibits growth by 50% as compared to control growth after 45 hours following application of the substance. The dose value as obtained is referred to as ED 50 and activity is indicated for ED 50 levels of ≦30 μg/ml. […] The activities of sootepenseone (1) obtained in Example 1 are reported below in Table 2.

[3] = test system: MCF-7: human breast cancer; assay: In vivo antitumor activity (hollow fiber assay), MCF-7; conditions: location s.c.; i.p. doses (mg/kg): sootepenseone 4 × 10, Actinomycin D 4 × 0.1, Adriamycin 4 × 4, Bleomycin 4 × 8, Vinblastin 4 × 0.65; negative values = increase in cell growth
Description: as §1

in vivo = conditions: mouse, ip

Molecule | % Inhibition (cell line) KB [1] | LD50 (mg/kg i.p. mice) (mice) | activity in the hollow-fiber test compared with the standard compounds ([1]; in words, KB and MCF-7) | anticancer activity against all tested tumor cell lines [2] | less toxic than Adriamycin (mice; from LD50 i.p. mice) | less toxic than Bleomycin (mice; from LD50 i.p. mice) | times less toxic than Actinomycin D (mice; from LD50 i.p. mice) | times less toxic than Vinblastin (mice; from LD50 i.p. mice) | % Inhibition (cell line) MCF-7 [3] | LD50 (in vivo)
CC[C@]1(O)C[C@@H]2CN(CCc3c([nH]c4ccccc34)[C@@](C(=O)OC)(c3cc4c(cc3OC)N(C)[C@H]3[C@@](O)(C(=O)OC)[C@H](OC(C)=O)[C@]5(CC)C=CCN6CC[C@]43[C@@H]65)C2)C1 [Vinblastin] | 13% | ca. 6 mg/kg | – | – | – | – | – | – | – | –
CC(C)=CC[C@]12OC(C)(C)C3CC(C=C4C(=O)c5c(O)cc6c(c5OC431)C(C)(C)C(C)O6)C2=O (stereo partly drawn) [Sootepenseone (1; D-25637), sootepenseone] | 49% | – | more active | significant anticancer activity | 60% | 20% | at least 100 times | about 16 times | 41% | > 100 mg/kg
Cc1c2oc3c(C)ccc(C(=O)N[C@@H]4C(=O)N[C@H](C(C)C)C(=O)N5CCC[C@H]5C(=O)N(C)CC(=O)N(C)[C@@H](C(C)C)C(=O)O[C@@H]4C)c3nc-2c(C(=O)N[C@@H]2C(=O)N[C@H](C(C)C)C(=O)N3CCC[C@H]3C(=O)N(C)CC(=O)N(C)[C@@H](C(C)C)C(=O)O[C@@H]2C)c(N)c1=O [Actinomycin D] (I: T[dV]P[Sar][NMeV] / II: T[dV]P[Sar][NMeV]; ester I:1-I:C, II:1-II:C; linker I:N-II:N via Actinocin(9to1)) | 40% | ca. 1 mg/kg | – | – | – | – | – | – | – | –
COc1cccc2c1C(=O)c1c(O)c3c(c(O)c1C2=O)C[C@@](O)(C(=O)CO)C[C@@H]3O[C@H]1C[C@H](N)[C@H](O)[C@H](C)O1 [Adriamycin] | 52% | – | – | – | – | – | – | – | 41% | ~40 mg/kg
Bleomycin | 53% | ca. 80 mg/kg | – | – | – | – | – | – | – | –
